# According to ChEMBL document CHEMBL1201862, “PubChem BioAssay data set” (2004):
#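 Compound exposure: 48 hours, 5 concentrations, 96-well plates. At the GI50, growth is halved.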 Active and inactive are the calls of the source. Rule as the data show it: active = GI50 up to about 1.1 µM and inactive = higher.
# Experiments:
# Assay in all cases: DTP human tumour cell line panel, 48 h
# CAKI-1 = tested on: CAKI-1
# COLO 205 = tested on: COLO 205
# HCC 2998 = tested on: HCC 2998
# HCT-15 = tested on: HCT-15
# HOP-62 = tested on: HOP-62
# HT-29 = tested on: HT-29
# NCI-H226 = tested on: NCI-H226
# NCI-H23 = tested on: NCI-H23
# NCI-H460 = tested on: NCI-H460
# NCI-H522 = tested on: NCI-H522
# SF-295 = tested on: SF-295
# SK-MEL-2 = tested on: SK-MEL-2
# SNB-19 = tested on: SNB-19
# TK-10 = tested on: TK-10
# U-251 = tested on: U-251
# EKVX = tested on: EKVX
SMILES,GI50 (CAKI-1),GI50 (COLO 205),GI50 (HCC 2998),GI50 (HCT-15),GI50 (HOP-62),GI50 (HT-29),GI50 (NCI-H226),GI50 (NCI-H23),GI50 (NCI-H460),GI50 (NCI-H522),GI50 (SF-295),GI50 (SK-MEL-2),GI50 (SNB-19),GI50 (TK-10),GI50 (U-251),GI50 (EKVX)
COc1cc(C)c(O)c(C(=O)O)c1,> 100 µM (inactive),> 100 µM (inactive),> 100 µM (inactive),> 100 µM,> 100 µM (inactive),> 100 µM (inactive),> 100 µM (inactive),> 100 µM (inactive),> 100 µM (inactive),> 100 µM (inactive),> 100 µM (inactive),> 100 µM (inactive),> 100 µM (inactive),> 100 µM (inactive),> 100 µM (inactive),
Cc1nc(N)sc1C(=O)/C=C\c1ccc2c(c1)OCO2,> 100 µM (inactive),> 100 µM (inactive),> 100 µM (inactive),> 100 µM,> 100 µM (inactive),> 100 µM (inactive),> 100 µM (inactive),> 100 µM (inactive),> 100 µM (inactive),> 100 µM (inactive),> 100 µM (inactive),> 100 µM (inactive),> 100 µM (inactive),> 100 µM (inactive),> 100 µM (inactive),> 100 µM (inactive)
C=CC1(NS(=O)(=O)c2ccc(C)cc2)CCC(C(C)(C)C)CC1 (centres undefined),> 100 µM (inactive),> 100 µM (inactive),> 100 µM (inactive),> 100 µM,57.7 µM (inactive),,> 100 µM (inactive),,> 100 µM (inactive),32.7 µM (inactive),,60.7 µM (inactive),36.6 µM (inactive),88.5 µM (inactive),35.6 µM (inactive),
NC(=O)CC(N/C=C1/N=C(c2ccccc2)OC1=O)C(=O)O (centres undefined),> 100 µM (inactive),> 100 µM (inactive),> 100 µM (inactive),> 100 µM,> 100 µM (inactive),> 100 µM (inactive),> 100 µM (inactive),> 100 µM (inactive),> 100 µM (inactive),> 100 µM (inactive),> 100 µM (inactive),> 100 µM (inactive),> 100 µM (inactive),> 100 µM (inactive),> 100 µM (inactive),> 100 µM (inactive)
COc1ccc(/C=C2\C(=O)N(NC(C)=O)c3ccccc32)cc1,43.5 µM (inactive),> 100 µM (inactive),71.6 µM (inactive),67.9 µM,97.3 µM (inactive),42 µM (inactive),> 100 µM (inactive),> 100 µM (inactive),> 100 µM (inactive),,> 100 µM (inactive),> 100 µM (inactive),> 100 µM (inactive),46.5 µM (inactive),> 100 µM (inactive),48.8 µM (inactive)
CN(CCCCN)c1ccc2c(=O)[nH][nH]c(=O)c2c1,> 100 µM (inactive),> 100 µM (inactive),> 100 µM (inactive),> 100 µM,> 100 µM (inactive),> 100 µM (inactive),> 100 µM (inactive),2.24 µM (inactive),> 100 µM (inactive),> 100 µM (inactive),> 100 µM (inactive),> 100 µM (inactive),> 10 µM (inactive),> 100 µM (inactive),> 100 µM (inactive),> 100 µM (inactive)
Cc1cc(C)c(C2[C@H]3C(=O)N(c4ccc(Cc5ccc(N6C(=O)[C@@H]7ON(c8ccccc8)C(c8c(C)cc(C)cc8C)[C@@H]7C6=O)cc5)cc4)C(=O)[C@H]3ON2c2ccccc2)c(C)c1 (some centres undefined),57.9 µM (inactive),> 100 µM (inactive),> 100 µM (inactive),> 100 µM,> 100 µM (inactive),> 100 µM (inactive),> 100 µM (inactive),> 100 µM (inactive),> 100 µM (inactive),> 100 µM (inactive),> 100 µM (inactive),> 100 µM (inactive),> 100 µM (inactive),> 100 µM (inactive),> 100 µM (inactive),> 100 µM (inactive)
CC1(C)C(c2ccccc2)=NN(O)c2ccccc21,> 100 µM (inactive),> 100 µM (inactive),> 100 µM (inactive),> 100 µM,> 100 µM (inactive),> 100 µM (inactive),> 100 µM (inactive),> 100 µM (inactive),> 100 µM (inactive),> 100 µM (inactive),> 100 µM (inactive),> 100 µM (inactive),> 100 µM (inactive),> 100 µM (inactive),> 100 µM (inactive),> 100 µM (inactive)
O=C1c2ccccc2C2CCC1c1ccccc12 (centres undefined),34.8 µM (inactive),19.2 µM (inactive),53.1 µM (inactive),30.6 µM,48 µM (inactive),29.9 µM (inactive),45.6 µM (inactive),24 µM (inactive),33.3 µM (inactive),25 µM (inactive),33.4 µM (inactive),32.1 µM (inactive),65 µM (inactive),34.9 µM (inactive),39.5 µM (inactive),43.4 µM (inactive)
CCN(CC)CCC1CC/C(=C\c2ccc(OC)cc2)C1=O (centres undefined),> 100 µM (inactive),18 µM (inactive),> 100 µM (inactive),38.7 µM,> 100 µM (inactive),39.3 µM (inactive),> 100 µM (inactive),,,60.7 µM (inactive),> 100 µM (inactive),> 100 µM (inactive),> 100 µM (inactive),> 100 µM (inactive),> 100 µM (inactive),> 100 µM (inactive)
Cc1ccc(/C=C/C(=O)CCN(C)C)cc1,13.9 µM (inactive),16 µM (inactive),17.7 µM (inactive),15.5 µM,54.5 µM (inactive),18.2 µM (inactive),19.2 µM (inactive),27.9 µM (inactive),21.8 µM (inactive),,33 µM (inactive),,26.3 µM (inactive),16.5 µM (inactive),16.3 µM (inactive),
COC(=O)C(C#N)=C1c2ccccc2Oc2ccccc21,> 100 µM (inactive),92 µM (inactive),98.9 µM (inactive),> 100 µM,> 100 µM (inactive),39.3 µM (inactive),65.5 µM (inactive),56.9 µM (inactive),> 100 µM (inactive),24.9 µM (inactive),46.5 µM (inactive),> 100 µM (inactive),41.6 µM (inactive),> 100 µM (inactive),,> 100 µM (inactive)
CC(C)(c1ccccc1)c1ccc(OC#N)cc1,> 95.5 µM (inactive),> 41.3 µM (inactive),> 77.6 µM (inactive),15.2 µM,> 100 µM (inactive),> 70.3 µM (inactive),51.5 µM (inactive),68.9 µM (inactive),38.5 µM (inactive),15.2 µM (inactive),60.8 µM (inactive),> 100 µM (inactive),> 78 µM (inactive),> 100 µM (inactive),47.2 µM (inactive),> 100 µM (inactive)
CC(C)Cc1cc(CCC(=O)Nc2ccccc2[N+](=O)[O-])nc(NC#N)n1,> 100 µM (inactive),> 100 µM (inactive),> 100 µM (inactive),> 100 µM,> 100 µM (inactive),> 100 µM (inactive),> 100 µM (inactive),> 100 µM (inactive),> 100 µM (inactive),> 100 µM (inactive),> 100 µM (inactive),,> 100 µM (inactive),> 100 µM (inactive),> 100 µM (inactive),> 100 µM (inactive)
C[C@]1(CO)CCC[C@@]2(C)C1CC[C@H]1CC3C[C@]12CC[C@]3(C)O (some centres undefined),> 100 µM (inactive),36.4 µM (inactive),58.9 µM (inactive),> 100 µM,39.8 µM (inactive),> 100 µM (inactive),> 100 µM (inactive),83.8 µM (inactive),19 µM (inactive),16.3 µM (inactive),> 100 µM (inactive),,> 100 µM (inactive),37.5 µM (inactive),42.1 µM (inactive),
O=C1CCCN(c2ccccc2)N1,> 100 µM (inactive),,> 100 µM (inactive),> 100 µM,> 100 µM (inactive),> 100 µM (inactive),> 100 µM (inactive),,> 100 µM (inactive),> 100 µM (inactive),> 100 µM (inactive),> 100 µM (inactive),> 100 µM (inactive),,> 100 µM (inactive),> 100 µM (inactive)
COc1cc2c[n+](C)c3c4cc(OC)c(OC)cc4c(OCCCCCCCCOc4cc5c6cc(OC)c(OC)cc6c[n+](C)c5c5cc(OC)c(OC)cc45)cc3c2cc1OC,> 100 µM (inactive),,> 100 µM (inactive),> 100 µM,> 100 µM (inactive),67.9 µM (inactive),> 100 µM (inactive),> 100 µM (inactive),> 100 µM (inactive),> 100 µM (inactive),> 100 µM (inactive),> 100 µM (inactive),17.4 µM (inactive),> 100 µM (inactive),12.9 µM (inactive),> 100 µM (inactive)
O=C1c2ccccc2C(=O)c2c1cc(S(=O)(=O)O)c(O)c2O [Alizarin Red S],> 100 µM (inactive),> 100 µM (inactive),> 100 µM (inactive),> 100 µM,> 100 µM (inactive),> 100 µM (inactive),> 100 µM (inactive),> 100 µM (inactive),> 100 µM (inactive),> 100 µM (inactive),> 100 µM (inactive),32.4 µM (inactive),> 10 µM (inactive),> 100 µM (inactive),> 100 µM (inactive),> 100 µM (inactive)
